US5972894A, “Peptides having potassium channel opener activity” (Cytran, Inc., priority 1997, dated 1999)
“And” between values parts separate entries of the source, which are not always exact repeats. Equal entries are not always repeated. Residues, ends and D or L forms follow the SMILES beside them.

Key:
Intestinal Smooth Muscle = experiment: Calcium-induced contraction of intestinal smooth muscle specimens; assay type: cell-based, guinea pigs; conditions: 20 mM CaCl2
Experimental: GE and VT served as test substances in this experiment. GE was tested at concentrations of 10^-6 g/ml and 10^-5 g/ml (4.9×10^-6 M and 4.9×10^-5 M, respectively), and VT was tested at concentrations 10^-6 g/ml and 10^-5 g/ml (4.58×10^-6 and 4.58×10^-5 M, respectively).
Small intestinal SMS samples from ten guinea pigs were surgically isolated and prepared as follows. First, the SMS samples were preincubated for 40 minutes in an organ bath holding a standard Krebs-Henseleit physiological salt solution containing calcium chloride (CaCl2) at concentration of 2.5 mM. Next, each SMS was washed with a calcium-free solution of Krebs-Henseleit and incubated in a calcium-free Krebs-Henseleit solution for 40 minutes. Contractile activity was pre-induced in each SMS by first perfusing the organ bath containing the sample for 15 minutes with a Krebs-Henseleit solution containing 30 mM KCl and then perfusing the bath for an additional 15 minutes with a Krebs-Henseleit solution containing 20 mM CaCl2. Finally, each SMS sample was washed with a calcium-free Krebs-Henseleit solution for 40 minutes. In these experiments, measurements of the contractile response of the SMS following the addition of a Krebs-Henseleit solution containing 20 mM calcium served as the control (baseline). Changes in contraction amplitudes were recorded by using the method set forth in Step 1 of Example 2, above.
After washing the SMS as outlined in Step 1, the organ bath with the SMS sample was perfused for 15 minutes with the solution of a test or reference substance. In this instance, GE and VT served as the test substances, and each dipeptide was tested at a concentration of 10^-6 g/ml.
Following perfusion with the test or reference substance, the SMS sample/organ bath was perfused for 10 minutes with a Krebs-Henseleit solution containing 30 mM KCl and then perfused for an additional 10 minutes with a Krebs-Henseleit solution containing 20 mM CaCl2. Next, each SMS sample was washed with a calcium-free Krebs-Henseleit solution for 40 minutes. The effect of the test or reference substance on the SMS sample was evaluated by measuring the contractile response (i.e., the change in contraction amplitude) of the sample following the addition of the Krebs-Henseleit solution containing 20 mM CaCl2.
Next, the organ bath was perfused for 10 minutes with a Krebs-Henseleit solution containing 30 mM KCl and then for additional 10 minutes with a Krebs-Henseleit solution containing 20 mM CaCl2. The effect of the respective test or reference substance was evaluated a second time by measuring the change in the contraction amplitude of the SMS following the addition of the Krebs-Henseleit solution containing 20 mM CaCl2. […]

mice = experiment: Chloroform-induced arrhythmia; assay type: in vivo; conditions: 240 mg/kg i.p. 15 min before chloroform
Experimental: Each mouse in the study was treated by intraperitoneal injection of a dose of a test or control substance 15 minutes prior to the administration of a deep chloroform anesthesia. A test or control substance was then administered to each mouse. […] Novocainamide, a known antiarrhythmic agent, served as the positive control substance and was administered to mice in the positive control group at a dose of 240 mg/kg. Physiological saline served as the negative control substance and was administered to the mice in the negative control group.
Chloroform anesthesia was administered to each mouse by placing the mouse in an airtight glass container with cotton wool soaked in 20 ml of absolute chloroform. At the moment of respiratory arrest, the mouse was removed from the jar and electrocardiogram (ECG) monitoring (standard lead II) was initiated and continued for 30 seconds. […] An antiarrhythmic activity for a particular dose of a test substance is pharmaceutically acceptable if 30% of the animals in a test group show the latter test results (i.e., namely, no sign of ventricular paroxysmal rhythm disturbances and heart rate below 100 beats per 30 seconds within 30 seconds following the respiratory arrest).

rats = experiment: ECG parameters of cardiac function in Nembutal-anesthetized rats
Experimental: White random-bred male rats weighing about 200 g were anesthetized using Nembutal. A basal ECG was taken as soon as possible following anesthetization to establish basal measurements for the principal parameters of cardiac functions. Rats showing any deviation from normal ECG parameters were excluded from the study.
Each dose of each test substance was evaluated on a separate experimental group consisting of 10 rats. ECG traces (no less than 4 complexes each) were taken at 1, 3, 5, and 10 minutes after the injection of the test substance. Physiological saline served as the negative control substance. To each animal in the negative control group, 2 ml of physiological saline was injected intravenously.
Cardiac function was evaluated by monitoring the following ECG parameters:
(iv) the duration of the QT interval (which defines the time from the beginning of the QRS complex to the end of the T wave and reflects the duration of ventricular depolarization and repolarization). The normal value for this parameter for Nembutal-anesthetized rats is 50 to 106 ms using lead II ECG.

ischemic myocardium = experiment: Inotropic function and arrhythmias of ischemic isolated rat heart during reperfusion; conditions: 0.06-6.0 mg/l
Description: Rat hearts were surgically isolated from white random-bred rats weighing approximately 250 g. The isolated hearts were perfused with a standard oxygenated (95% O2 and 5% CO2) Krebs-Henseleit solution in a retrograde manner (i.e., according to Langendorff and using a constant perfusate pressure of 80 cm of water). The hearts maintained a steady spontaneous contraction rate. A latex balloon catheter connected to a pressure transducer (EMT-746, Siemens-Elema, Sweden) was inserted into the left ventricle of each heart to measure the inotropic function of the heart (as described in Example 3, above). The left ventricle pressure variation curve was recorded using a polygraph.
Stage I ("adaptation regimen") consisted of a 30-minute adaptation of the respective rat hearts to the perfusion regimen. The baseline parameters for the inotropic function of each heart were recorded to establish the preischemic values for the following measured parameters: (i) the systolic pressure in the left ventricle (Psyst. mm Hg); (ii) the diastolic pressure in the left ventricle (Pdiast. mm Hg); (iii) the evolving pressure (Pev. =Psyst. -Pdist. mm Hg); (iv) the maximal rate of increase of left ventricle pressure (+dp/dtmax mm Hg/sec); and (v) the maximal rate of decrease of left ventricle pressure (-dp/dtmax mm Hg/sec). In addition, the heart rate (HR) of each heart was determined from the recordings made of the variations in the left ventricle pressure over time. In Stage II ("ischemic simulation"), ischemia was induced in each heart by shutting off the supply of the perfusion solution to the heart. Approximately 30 minutes later, Stage III ("reperfusion regimen") was initiated by restarting the reperfusion and including in the perfusate solution a test or control substance at one of the following respective concentrations: a perfusate solution of a test substance comprised 0.06, 0.6, or 6.0 mg/l GE, or 0.06, 0.6, or 6.0 mg/l VT, respectively; a perfusate solution of the positive control substance comprised 14 mg/l inosine. Inosine is a nucleoside preparation that produces a favorable inotropic effect on both normal and ischemic myocardium while inducing no rhythm disturbances or acceleration of ischemic contracture development. Woollard et al., Cardiovasc. Res. 15: 659-67 (1981). Inosine was obtained from Sigma Chemical Company, USA (Cat. Code I-4125; lot number 81H0227). The negative control substance comprised reperfusion using a standard oxygenated Krebs-Henseleit solution.
For each heart, the inotropic function of the myocardium was evaluated by measuring the parameters (i) through (v), discussed above, and the heart rate. These six parameters were recorded continuously throughout the study (i.e., beginning with Stage I and continuing through Stage III). The recordings were analyzed at the following times: (a) immediately before beginning Stage II (that is, after the 30-minute Stage I adaptation period, but before stopping perfusion); and (b) at 1, 5, 10, 20, and 30 minutes into the Stage III reperfusion.
The frequency and duration of rhythm disturbances in the 30-minute Stage III reperfusion period were determined by measuring the following parameters: (i) the number of ventricular extrasystoles; (ii) the overall duration of ventricular tachycardias (in seconds); and (iii) the overall duration of ventricular fibrillation (in seconds). Each dose of the test substance was tested on nine isolated hearts.

[1] = system: Smooth Muscle Cells of Rat Portal Vein; experiment: Spontaneous contractile activity of rat portal vein smooth muscle specimens; assay type: cell-based; conditions: 5×10^-7 g/ml
Experimental: Rat portal vein SMS samples were surgically isolated from random bred rats weighing 200-250 g. The suitability of each isolated rat portal vein SMS was established by measuring the spontaneous contraction response and its contractile response of the specimen to potassium chloride (KCl) as follows. Each isolated SMS was placed into an organ bath with standard Krebs-Henseleit (KH) solution at 35° C. Then, 0.5 ml of physiological saline were added into the organ bath. In this procedure, one end of the smooth muscle strip was fixed, while the other end of the muscle strip was connected with a probe which transmitted contraction-induced signals to an analog-to-digital converter. The spontaneous contraction curve for each SMS was recorded by taking repeated measurements over a 1-minute period. Next, 0.5 ml of a 600 mM solution of KCl in physiological saline was added to the SMS sample/organ bath to achieve a final concentration of 60 mM KCl. KCl induces contraction of rat portal vein tissue at a fmal tissue concentration of about 60 mM.
The KCl-induced contraction curve for each specimen sample was then recorded over the next 5-minute period. […] During this stabilization period, the spontaneous contraction curve for each SMS was verified by monitoring the data obtained from analog-to-digital converter.
To each SMS in the organ bath prepared according to Steps 2 and 3 above, 0.5 ml of physiological saline was added, and the spontaneous contraction curve was recorded for 1 minute. Each spontaneous contraction curve served as baseline (control) curve for comparison with the respective spontaneous contraction of each SMS in the presence of a test substance or reference substance.
Spontaneous contraction curve values for each SMS were recorded by making repetitive measurements of the spontaneous contractile activity of each sample at 2, 5, 10, and 15 minutes after the addition of the test or reference substance to each SMS/organ bath. Next, 0.5 ml of a solution of 600 mM solution of KCl in […] in the organ bath until a final concentration of 60 mM KCl was achieved. The contractile activity of each SMS was then measured for 5 minutes.

Structure (SMILES): CN1[C@@H]2CC[C@H]1C[C@@H](OC(=O)C(CO)c1ccccc1)C2 (stereo partly shown) [Atropine, atropine]
- Contraction Amplitude, calcium-induced (% of control level) (Intestinal Smooth Muscle; Application I, 10^-7 g/ml): 39.57%
- Contraction Amplitude, calcium-induced (% of control level) (Intestinal Smooth Muscle; Application II, 10^-6 g/ml): 25.08%

Structure (SMILES): CCN(CC)CCNC(=O)c1ccc(N)cc1 [Novocainamide, reference compound]
- Antiarrhythmic Effect (no. animals) % (mice): 77.8%
- Antiarrhythmic Effect (no. animals) abs (mice): 7
- Result (mice): Antiarrhythmic effect

Structure (SMILES): CC(C)[C@H](N)C(=O)N[C@H](C(=O)O)[C@@H](C)O [VT, L-Valine-L-Threonine] (H-Val-Thr-OH)
- Duration of QT Interval (% of Initial Mean Value) (rats; 0.001 mg/kg i.v., 1 min): 101.80%
- Duration of QT Interval (% of Initial Mean Value) (rats; 0.001 mg/kg i.v., 3 min): 105.73%
- Duration of QT Interval (% of Initial Mean Value) (rats; 0.001 mg/kg i.v., 5 min): 102.20%
- Duration of QT Interval (% of Initial Mean Value) (rats; 0.001 mg/kg i.v., 10 min): 101.24%
- Duration of QT Interval (% of Initial Mean Value) (rats; 0.01 mg/kg i.v., 1 min): 99.86%
- Duration of QT Interval (% of Initial Mean Value) (rats; 0.01 mg/kg i.v., 3 min): 101.48%
- Duration of QT Interval (% of Initial Mean Value) (rats; 0.01 mg/kg i.v., 5 min): 101.09%
- Duration of QT Interval (% of Initial Mean Value) (rats; 0.01 mg/kg i.v., 10 min): 97.32%
- Duration of QT Interval (% of Initial Mean Value) (rats; 0.1 mg/kg i.v., 1 min): 102.97%
- Duration of QT Interval (% of Initial Mean Value) (rats; 0.1 mg/kg i.v., 3 min): 98.39%
- Duration of QT Interval (% of Initial Mean Value) (rats; 0.1 mg/kg i.v., 5 min): 95.65%
- Duration of QT Interval (% of Initial Mean Value) (rats; 0.1 mg/kg i.v., 10 min): 90.67%
- Duration of QT Interval (% of Initial Mean Value) (rats; 1.0 mg/kg i.v., 1 min): 105.57%
- Duration of QT Interval (% of Initial Mean Value) (rats; 1.0 mg/kg i.v., 3 min): 105.58%
- Duration of QT Interval (% of Initial Mean Value) (rats; 1.0 mg/kg i.v., 5 min): 102.18%
- Duration of QT Interval (% of Initial Mean Value) (rats; 1.0 mg/kg i.v., 10 min): 101.18%
- Duration of QT Interval (% of Initial Mean Value) (rats; 10.0 mg/kg i.v., 1 min): 94.89% and 102.97%
- Duration of QT Interval (% of Initial Mean Value) (rats; 10.0 mg/kg i.v., 3 min): 95.91% and 105.82%
- Duration of QT Interval (% of Initial Mean Value) (rats; 10.0 mg/kg i.v., 5 min): 96.52% and 103.51%
- Duration of QT Interval (% of Initial Mean Value) (rats; 10.0 mg/kg i.v., 10 min): 88.88% and 104.78%
- Duration of QT Interval (% of Initial Mean Value) (rats; 100.0 mg/kg i.v., 1 min): 100.00% and 96.62%
- Duration of QT Interval (% of Initial Mean Value) (rats; 100.0 mg/kg i.v., 3 min): 100.82% and 100.45%
- Duration of QT Interval (% of Initial Mean Value) (rats; 100.0 mg/kg i.v., 5 min): 97.96% and 99.74%
- Duration of QT Interval (% of Initial Mean Value) (rats; 100.0 mg/kg i.v., 10 min): 94.74% and 102.25%
- arrhythmogenic effect during reperfusion (ischemic myocardium): Neither GE nor VT was found to have an arrhythmogenic effect

Structure (SMILES): COc1ccc(CCN(C)CCCC(C#N)(c2ccc(OC)c(OC)c2)C(C)C)cc1OC (stereo not shown) [Verapamil, reference compound]
- Amplitude of spontaneous contraction (% of Control) ([1]; 2 min after application): 95.82%
- Area Under Curve of spontaneous contraction (% of Control) ([1]; 2 min after application): 82.41%
- Amplitude of spontaneous contraction (% of Control) ([1]; 5 min after application): 78.58%
- Area Under Curve of spontaneous contraction (% of Control) ([1]; 5 min after application): 62.11%
- Amplitude of spontaneous contraction (% of Control) ([1]; 10 min after application): 60.79%
- Area Under Curve of spontaneous contraction (% of Control) ([1]; 10 min after application): 49.83%
- Amplitude of spontaneous contraction (% of Control) ([1]; 15 min after application): 37.92%
- Area Under Curve of spontaneous contraction (% of Control) ([1]; 15 min after application): 35.13%

Structure (SMILES): COc1ccc([C@@H]2Sc3ccccc3N(CCN(C)C)C(=O)[C@@H]2OC(C)=O)cc1 [Diltiazem, diltiazem]
- Contraction Amplitude, calcium-induced (% of control level) (Intestinal Smooth Muscle; Application I, 10^-9 g/ml): 39.02%
- Contraction Amplitude, calcium-induced (% of control level) (Intestinal Smooth Muscle; Application II, 10^-8 g/ml): 12.95%
